Source: patent US20240293413A1, “COMPOUND AND METHOD FOR TREATING CHEMOTHERAPY-RELATED GASTROINTESTINAL SIDE EFFECTS” (ONQUALITY PHARMACEUTICALS CHINA LTD., priority 2021, published 2024)

Tests used:
Type in all cases: in vivo
[1] = system: diarrhea caused by a chemotherapeutic agent in Balb/c mice; test: Examples 343-381 (Table 6): oral versus intravenous CDK inhibitor, relief of diarrhea caused by a chemotherapeutic agent;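 on Relative remission rate: percent of treated mice whose diarrhea grade fell below chemotherapy-group average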
Outline: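 Balb/c mice (10 per group) received the CDK inhibitor orally or by tail-vein injection, or vehicle, followed by a chemotherapeutic agent or its solvent. Diarrhea grade was scored daily.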

[2] = system: Chemotherapeutic agent-caused diarrhea models of Balb/c mice; test: Examples 1-229 (Table 3): oral CDK inhibitor, relief of diarrhea caused by a chemotherapeutic agent;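 further: percent of treated mice whose diarrhea grade fell below chemotherapy-group average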
[3] = system: diarrhea caused by a chemotherapeutic agent in Balb/c mice; test: Examples 382-405 (Table 7): various administration modes of the CDK inhibitor, relief of diarrhea caused by a chemotherapeutic agent
Description: Balb/c mice were fed for 1 week, and then divided into groups. The experiment was divided into a control group, a chemotherapeutic agent group, CDK inhibitor groups (including an oral administration group of a CDK inhibitor, an intraperitoneal injection group of a CDK inhibitor, an intramuscular injection group of a CDK inhibitor, a local administration group of a CDK inhibitor), each of which comprised 10 mice, to perform the administration experiment, for which the administration dosage, mode, time and frequency were shown in Table 7. The control group: being administered with the same solvent as that used in the CDK inhibitor group (the time and mode were shown in Table 7), and then being injected/intragastrically administered with the same solvent as that used in the chemotherapeutic agent group (the administration mode was shown in Table 7): the chemotherapeutic agent group: being administered with the same solvent as that used in the CDK inhibitor group (the time and mode were shown in Table 7), and then being injected/intragastrically administered with the chemotherapeutic agent (the type, administration mode and dosage were shown in Table 7): the oral administration group of the CDK inhibitor: being intragastrically administered with the CDK inhibitor (the time was shown in Table 7), and then being administered with the chemotherapeutic agent (the mode and dosage were shown in Table 7): the intraperitoneal injection group of the CDK inhibitor: being intraperitoneally injected with the CDK inhibitor (the time was shown in Table 7), and then being administered with the chemotherapeutic agent (the mode and dosage were shown in Table 7): the intramuscular injection group of the CDK inhibitor: being intramuscularly injected with the CDK inhibitor (the time was shown in Table 7), and then being administered with the chemotherapeutic agent (the mode and dosage were shown in Table 7); and the local administration group of the CDK inhibitor: the hair on the abdomen of mice was shaved (about 2 cm*2 cm), being applied with the CDK inhibitor (the time was shown in Table 7), and then being administered with the chemotherapeutic agent (the mode and dosage were shown in Table 7).
The diarrhea grading of mice was observed and recorded every day.

CN(C)C(=O)c1cc2cnc(Nc3ccc(N4CCNCC4)cn3)nc2n1C1CCCC1 [Ribociclib]
effectively relieve diarrhea: relief of diarrhea by oral administration and injection administration ([1]; diarrhea caused by etoposide, etoposide in combination with cisplatin, carboplatin, gemcitabine, gemcitabine in combination with carboplatin, and topotecan, oral administration has the most significant effect)
can relieve diarrhea: relief of diarrhea by oral, injection and local administration ([3]; diarrhea caused by docetaxel, carboplatin, gemcitabine, and gemcitabine plus carboplatin, under certain conditions, effect of oral administration most significant)
10%: Relative remission rate ([1]; Example 352, Etoposide and cisplatin intraperitoneal injection 50 (E) 5 (Cis) mg/kg single, CDK inhibitor intravenous injection 125 mg/kg single, 0.5 h before, cycle 7 days) | Relative remission rate ([1]; Example 353, Etoposide and cisplatin intraperitoneal injection 50 (E) 5 (Cis) mg/kg single, CDK inhibitor intravenous injection 125 mg/kg single, 4 h before, cycle 7 days) | Relative remission rate ([1]; Example 354, Etoposide and cisplatin intraperitoneal injection 50 (E) 5 (Cis) mg/kg single, CDK inhibitor intravenous injection 125 mg/kg single, 8 h before, cycle 7 days) | Relative remission rate ([1]; Example 356, Etoposide and cisplatin intraperitoneal injection 50 (E) 5 (Cis) mg/kg single, CDK inhibitor intravenous injection 125 mg/kg single, 24 h before, cycle 7 days) | Relative remission rate ([1]; Example 361, Carboplatin (CBP) intraperitoneal injection 120 mg/kg single, CDK inhibitor intravenous injection 200 mg/kg single, 8 h before, cycle 10 days) | Relative remission rate ([1]; Example 362, Carboplatin (CBP) intraperitoneal injection 120 mg/kg single, CDK inhibitor intravenous injection 200 mg/kg single, 12 h before, cycle 10 days) | Relative remission rate ([1]; Example 363, Carboplatin (CBP) intraperitoneal injection 120 mg/kg single, CDK inhibitor intravenous injection 200 mg/kg single, 24 h before, cycle 10 days) | Relative remission rate of other administration mode ([3]; Example 389, Carboplatin (CBP) intraperitoneal injection 120 mg/kg single, CDK inhibitor intraperitoneal injection 200 mg/kg single, 0.5 h before, cycle 10 days) | Relative remission rate of other administration mode ([3]; Example 390, Carboplatin (CBP) intraperitoneal injection 120 mg/kg single, CDK inhibitor intraperitoneal injection 200 mg/kg single, 4 h before, cycle 10 days) | Relative remission rate of other administration mode ([3]; Example 391, Carboplatin (CBP) intraperitoneal injection 120 mg/kg single, CDK inhibitor intraperitoneal injection 200 mg/kg single, 8 h before, cycle 10 days) | Relative remission rate of other administration mode ([3]; Example 393, Carboplatin (CBP) intraperitoneal injection 120 mg/kg single, CDK inhibitor intraperitoneal injection 200 mg/kg single, 24 h before, cycle 10 days)
40%: Relative remission rate ([1]; Example 352, Etoposide and cisplatin intraperitoneal injection 50 (E) 5 (Cis) mg/kg single, CDK inhibitor oral 125 mg/kg single, 0.5 h before, cycle 7 days) | Relative remission rate ([1]; Example 353, Etoposide and cisplatin intraperitoneal injection 50 (E) 5 (Cis) mg/kg single, CDK inhibitor oral 125 mg/kg single, 4 h before, cycle 7 days) | Relative remission rate (%) ([2]; Example 45, Fluorouracil (5-Fu) intravenous injection 175 mg/kg single, CDK inhibitor oral 200 mg/kg single 0.5 h before, cycle 8 days) | Relative remission rate of oral administration ([3]; Example 392, Carboplatin (CBP) intraperitoneal injection 120 mg/kg single, CDK inhibitor oral 200 mg/kg single, 12 h before, cycle 10 days) | Relative remission rate of oral administration ([3]; Example 393, Carboplatin (CBP) intraperitoneal injection 120 mg/kg single, CDK inhibitor oral 200 mg/kg single, 24 h before, cycle 10 days)
20%: Relative remission rate ([1]; Example 355, Etoposide and cisplatin intraperitoneal injection 50 (E) 5 (Cis) mg/kg single, CDK inhibitor intravenous injection 125 mg/kg single, 12 h before, cycle 7 days) | Relative remission rate ([1]; Example 359, Carboplatin (CBP) intraperitoneal injection 120 mg/kg single, CDK inhibitor intravenous injection 200 mg/kg single, 0.5 h before, cycle 10 days) | Relative remission rate ([1]; Example 360, Carboplatin (CBP) intraperitoneal injection 120 mg/kg single, CDK inhibitor intravenous injection 200 mg/kg single, 4 h before, cycle 10 days) | Relative remission rate ([1]; Example 376, Gemcitabine (GEM) oral administration 300 mg/kg single, CDK inhibitor intravenous injection 100 mg/kg single, 24 h before, cycle 8 days) | Relative remission rate of other administration mode ([3]; Example 392, Carboplatin (CBP) intraperitoneal injection 120 mg/kg single, CDK inhibitor intraperitoneal injection 200 mg/kg single, 12 h before, cycle 10 days) | Relative remission rate of other administration mode ([3]; Example 401, Gemcitabine (GEM) oral administration 300 mg/kg single, CDK inhibitor local administration 100 mg/kg single, 24 h before, cycle 8 days)
30%: Relative remission rate of oral administration ([3]; Example 389, Carboplatin (CBP) intraperitoneal injection 120 mg/kg single, CDK inhibitor oral 200 mg/kg single, 0.5 h before, cycle 10 days)
60%: Relative remission rate ([1]; Example 354, Etoposide and cisplatin intraperitoneal injection 50 (E) 5 (Cis) mg/kg single, CDK inhibitor oral 125 mg/kg single, 8 h before, cycle 7 days) | Relative remission rate ([1]; Example 355, Etoposide and cisplatin intraperitoneal injection 50 (E) 5 (Cis) mg/kg single, CDK inhibitor oral 125 mg/kg single, 12 h before, cycle 7 days) | Relative remission rate ([1]; Example 359, Carboplatin (CBP) intraperitoneal injection 120 mg/kg single, CDK inhibitor oral 200 mg/kg single, 0.5 h before, cycle 10 days) | Relative remission rate ([1]; Example 361, Carboplatin (CBP) intraperitoneal injection 120 mg/kg single, CDK inhibitor oral 200 mg/kg single, 8 h before, cycle 10 days) | Relative remission rate ([1]; Example 362, Carboplatin (CBP) intraperitoneal injection 120 mg/kg single, CDK inhibitor oral 200 mg/kg single, 12 h before, cycle 10 days) | Relative remission rate ([1]; Example 376, Gemcitabine (GEM) oral administration 300 mg/kg single, CDK inhibitor oral 100 mg/kg single, 24 h before, cycle 8 days) | Relative remission rate (%) ([2]; Example 113, Irinotecan (CPT-11) oral administration 300 mg/kg single, CDK inhibitor oral 100 mg/kg single 24 h before, cycle 11 days)
50%: Relative remission rate ([1]; Example 356, Etoposide and cisplatin intraperitoneal injection 50 (E) 5 (Cis) mg/kg single, CDK inhibitor oral 125 mg/kg single, 24 h before, cycle 7 days) | Relative remission rate (%) ([2]; Example 229, Etoposide 60 mg/kg and carboplatin 5 mg/kg intraperitoneal injection single, CDK inhibitor oral 200 mg/kg single, 12 h before, 10 days) | Relative remission rate of oral administration ([3]; Example 390, Carboplatin (CBP) intraperitoneal injection 120 mg/kg single, CDK inhibitor oral 200 mg/kg single, 4 h before, cycle 10 days) | Relative remission rate of oral administration ([3]; Example 391, Carboplatin (CBP) intraperitoneal injection 120 mg/kg single, CDK inhibitor oral 200 mg/kg single, 8 h before, cycle 10 days) | Relative remission rate of oral administration ([3]; Example 401, Gemcitabine (GEM) oral administration 300 mg/kg single, CDK inhibitor oral 100 mg/kg single, 24 h before, cycle 8 days)
80%: Relative remission rate ([1]; Example 360, Carboplatin (CBP) intraperitoneal injection 120 mg/kg single, CDK inhibitor oral 200 mg/kg single, 4 h before, cycle 10 days) | Relative remission rate ([1]; Example 363, Carboplatin (CBP) intraperitoneal injection 120 mg/kg single, CDK inhibitor oral 200 mg/kg single, 24 h before, cycle 10 days) | Relative remission rate (%) ([2]; Example 167, Docetaxel (DTX) intravenous injection 10 mg/kg single, CDK inhibitor oral 200 mg/kg single 9 h before, cycle 8 days)
